Experiments:
T-47D Tam1 [1] = experiment: drug sensitivity score (DSS) (DSS (dimensionless)); higher = more sensitive; extreme values may be limits of the assay; details: 4-OH-tamoxifen in medium 1 µM; 72 h
Summary of the method: (§1)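 CellTiter-Glo viability was the readout, taken on a PHERAstar and normalised to vehicle-only and positive controls. It was measured after breast cancer cell lines and their resistant derivatives spent 72 h at 37 °C in 384-well plates containing library drugs at five concentrations spanning a 10 000-fold range, with 1 μM of the selecting drug in the medium of resistant lines. From logistic dose–response fits in the Breeze pipeline came drug sensitivity score, relative IC50 (curve midpoint) and top-dose inhibition.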

ZR-75-1 Tam2 [2] = experiment: as above; details: 4-OH-tamoxifen in medium 1 µM; 72 h
Summary of the method: as §1

T-47D [3] = experiment: as above; details: 72 h
Summary of the method: as §1

BT-474 [4] = experiment: as above; details: 72 h
Summary of the method: as §1

BT-474 Tam2 [5] = experiment: as above; details: 4-OH-tamoxifen in medium 1 µM; 72 h
Summary of the method: as §1

ZR-75-1 [6] = experiment: as above; details: 72 h
Summary of the method: as §1

MCF-7 Tam1 [7] = experiment: as above; details: 4-OH-tamoxifen in medium 1 µM; 72 h
Summary of the method: as §1

ZR-75-1 Tam1 [8] = experiment: as above; details: 4-OH-tamoxifen in medium 1 µM; 72 h
Summary of the method: as §1

MCF-7 [9] = experiment: as above; details: 72 h
Summary of the method: as §1

T-47D Tam2 [10] = experiment: as above; details: 4-OH-tamoxifen in medium 1 µM; 72 h
Summary of the method: as §1

BT-474 Tam1 [11] = experiment: as above; details: 4-OH-tamoxifen in medium 1 µM; 72 h
Summary of the method: as §1

T-47D Tam1 [12] = experiment: relative IC50 (midpoint of fitted logistic curve, plateau may be below 50% inhibition; CellTiter-Glo viability); higher = less potent; details: 4-OH-tamoxifen in medium 1 µM; 72 h
Summary of the method: as §1

ZR-75-1 Tam2 [13] = experiment: as above; details: 4-OH-tamoxifen in medium 1 µM; 72 h
Summary of the method: as §1

T-47D [14] = experiment: as above; details: 72 h
Summary of the method: as §1

BT-474 [15] = experiment: as above; details: 72 h
Summary of the method: as §1

BT-474 Tam2 [16] = experiment: as above; details: 4-OH-tamoxifen in medium 1 µM; 72 h
Summary of the method: as §1

ZR-75-1 [17] = experiment: as above; details: 72 h
Summary of the method: as §1

ZR-75-1 Tam1 [18] = experiment: as above; details: 4-OH-tamoxifen in medium 1 µM; 72 h
Summary of the method: as §1

MCF-7 [19] = experiment: as above; details: 72 h
Summary of the method: as §1

T-47D Tam2 [20] = experiment: as above; details: 4-OH-tamoxifen in medium 1 µM; 72 h
Summary of the method: as §1

BT-474 Tam1 [21] = experiment: as above; details: 4-OH-tamoxifen in medium 1 µM; 72 h
Summary of the method: as §1

MCF-7 Tam1 [22] = experiment: as above; details: 4-OH-tamoxifen in medium 1 µM; 72 h
Summary of the method: as §1

SMILES: N#Cc1ccc(COC[C@H]2O[C@@H](n3c(NCc4ccc(Cl)c(Cl)c4)nc4c(N)ncnc43)[C@H](O)[C@@H]2O)cc1
- drug sensitivity score (T-47D Tam1 [1]): 5.15
- drug sensitivity score (ZR-75-1 Tam2 [2]): 2.56
- drug sensitivity score (T-47D [3]; 4-OH-tamoxifen in medium 0 µM): 1.88
- drug sensitivity score (T-47D [3]; 4-OH-tamoxifen in medium 1 µM): 1.02
- drug sensitivity score (BT-474 [4]; 4-OH-tamoxifen in medium 0 µM): 0.615
- drug sensitivity score (BT-474 [4]; 4-OH-tamoxifen in medium 1 µM): 4.11
- drug sensitivity score (BT-474 Tam2 [5]): 3.17
- drug sensitivity score (ZR-75-1 [6]; 4-OH-tamoxifen in medium 0 µM): 4.24
- drug sensitivity score (ZR-75-1 [6]; 4-OH-tamoxifen in medium 1 µM): 4.03
- drug sensitivity score (MCF-7 Tam1 [7]): 0.584
- drug sensitivity score (ZR-75-1 Tam1 [8]): 2.54
- drug sensitivity score (MCF-7 [9]; 4-OH-tamoxifen in medium 0 µM): 1.74
- drug sensitivity score (MCF-7 [9]; 4-OH-tamoxifen in medium 1 µM): 2.54
- drug sensitivity score (T-47D Tam2 [10]): 2.46
- drug sensitivity score (BT-474 Tam1 [11]): 3.95
- relative IC50 (T-47D Tam1 [12]): 1170 nM
- relative IC50 (ZR-75-1 Tam2 [13]): 3350 nM
- relative IC50 (T-47D [14]; 4-OH-tamoxifen in medium 0 µM): 3590 nM
- relative IC50 (BT-474 [15]; 4-OH-tamoxifen in medium 1 µM): 2750 nM
- relative IC50 (BT-474 Tam2 [16]): 1730 nM
- relative IC50 (ZR-75-1 [17]; 4-OH-tamoxifen in medium 0 µM): 2070 nM
- relative IC50 (ZR-75-1 [17]; 4-OH-tamoxifen in medium 1 µM): 1870 nM
- relative IC50 (ZR-75-1 Tam1 [18]): 3000 nM
- relative IC50 (MCF-7 [19]; 4-OH-tamoxifen in medium 0 µM): 4190 nM
- relative IC50 (MCF-7 [19]; 4-OH-tamoxifen in medium 1 µM): 3250 nM
- relative IC50 (T-47D Tam2 [20]): 2000 nM
- relative IC50 (BT-474 Tam1 [21]): 1920 nM

SMILES: Cn1c(Nc2ccc(C(F)(F)F)cc2)nc2cc(Oc3ccnc(-c4ncc(C(F)(F)F)[nH]4)c3)ccc21 [RAF265]
- drug sensitivity score (T-47D Tam1 [1]): 8.26
- drug sensitivity score (ZR-75-1 Tam2 [2]): 0.002
- drug sensitivity score (T-47D [3]; 4-OH-tamoxifen in medium 0 µM): 0.294
- drug sensitivity score (T-47D [3]; 4-OH-tamoxifen in medium 1 µM): 0
- drug sensitivity score (BT-474 [4]; 4-OH-tamoxifen in medium 0 µM): 0
- drug sensitivity score (BT-474 [4]; 4-OH-tamoxifen in medium 1 µM): 0
- drug sensitivity score (BT-474 Tam2 [5]): 0
- drug sensitivity score (ZR-75-1 [6]; 4-OH-tamoxifen in medium 0 µM): 0
- drug sensitivity score (ZR-75-1 [6]; 4-OH-tamoxifen in medium 1 µM): 0
- drug sensitivity score (MCF-7 Tam1 [7]): 0
- drug sensitivity score (ZR-75-1 Tam1 [8]): 0
- drug sensitivity score (MCF-7 [9]; 4-OH-tamoxifen in medium 0 µM): 0
- drug sensitivity score (MCF-7 [9]; 4-OH-tamoxifen in medium 1 µM): 0
- drug sensitivity score (T-47D Tam2 [10]): 0
- drug sensitivity score (BT-474 Tam1 [11]): 0
- relative IC50 (T-47D [14]; 4-OH-tamoxifen in medium 1 µM): > 1000 nM
- relative IC50 (BT-474 [15]; 4-OH-tamoxifen in medium 0 µM): > 1000 nM
- relative IC50 (BT-474 [15]; 4-OH-tamoxifen in medium 1 µM): > 1000 nM
- relative IC50 (BT-474 Tam2 [16]): > 1000 nM
- relative IC50 (ZR-75-1 [17]; 4-OH-tamoxifen in medium 0 µM): > 1000 nM
- relative IC50 (ZR-75-1 [17]; 4-OH-tamoxifen in medium 1 µM): > 1000 nM
- relative IC50 (MCF-7 Tam1 [22]): > 1000 nM
- relative IC50 (ZR-75-1 Tam1 [18]): > 1000 nM
- relative IC50 (MCF-7 [19]; 4-OH-tamoxifen in medium 0 µM): > 1000 nM
- relative IC50 (MCF-7 [19]; 4-OH-tamoxifen in medium 1 µM): > 1000 nM
- relative IC50 (T-47D Tam2 [20]): > 1000 nM
- relative IC50 (BT-474 Tam1 [21]): > 1000 nM

SMILES: O=C(/C=C/c1cccc(S(=O)(=O)Nc2ccccc2)c1)NO [Belinostat  (PXD101)]
- drug sensitivity score (T-47D Tam1 [1]): 9.66
- drug sensitivity score (ZR-75-1 Tam2 [2]): 6.02
- drug sensitivity score (T-47D [3]; 4-OH-tamoxifen in medium 0 µM): 12
- drug sensitivity score (T-47D [3]; 4-OH-tamoxifen in medium 1 µM): 11.9
- drug sensitivity score (BT-474 [4]; 4-OH-tamoxifen in medium 0 µM): 12.8
- drug sensitivity score (BT-474 [4]; 4-OH-tamoxifen in medium 1 µM): 16.8
- drug sensitivity score (BT-474 Tam2 [5]): 9.18
- drug sensitivity score (ZR-75-1 [6]; 4-OH-tamoxifen in medium 0 µM): 4.2
- drug sensitivity score (ZR-75-1 [6]; 4-OH-tamoxifen in medium 1 µM): 3.84
- drug sensitivity score (MCF-7 Tam1 [7]): 2.18
- drug sensitivity score (ZR-75-1 Tam1 [8]): 4.54
- drug sensitivity score (MCF-7 [9]; 4-OH-tamoxifen in medium 0 µM): 14.7
- drug sensitivity score (MCF-7 [9]; 4-OH-tamoxifen in medium 1 µM): 12.7
- drug sensitivity score (T-47D Tam2 [10]): 7.43
- drug sensitivity score (BT-474 Tam1 [11]): 10.5
- relative IC50 (T-47D Tam1 [12]): 1260 nM
- relative IC50 (ZR-75-1 Tam2 [13]): 833 nM
- relative IC50 (T-47D [14]; 4-OH-tamoxifen in medium 0 µM): 795 nM
- relative IC50 (T-47D [14]; 4-OH-tamoxifen in medium 1 µM): 857 nM
- relative IC50 (BT-474 [15]; 4-OH-tamoxifen in medium 0 µM): 547 nM
- relative IC50 (BT-474 [15]; 4-OH-tamoxifen in medium 1 µM): 354 nM
- relative IC50 (BT-474 Tam2 [16]): 870 nM
- relative IC50 (ZR-75-1 [17]; 4-OH-tamoxifen in medium 0 µM): 791 nM
- relative IC50 (ZR-75-1 [17]; 4-OH-tamoxifen in medium 1 µM): 1200 nM
- relative IC50 (ZR-75-1 Tam1 [18]): 964 nM
- relative IC50 (MCF-7 [19]; 4-OH-tamoxifen in medium 0 µM): 363 nM
- relative IC50 (MCF-7 [19]; 4-OH-tamoxifen in medium 1 µM): 554 nM
- relative IC50 (T-47D Tam2 [20]): 1180 nM
- relative IC50 (BT-474 Tam1 [21]): 958 nM

SMILES: COc1c(C)cnc(Cn2cnc3c(Cl)nc(N)nc32)c1C [BIIB021]
- drug sensitivity score (T-47D Tam1 [1]): 9.86
- drug sensitivity score (ZR-75-1 Tam2 [2]): 5.51
- drug sensitivity score (T-47D [3]; 4-OH-tamoxifen in medium 0 µM): 11.6
- drug sensitivity score (T-47D [3]; 4-OH-tamoxifen in medium 1 µM): 9.03
- drug sensitivity score (BT-474 [4]; 4-OH-tamoxifen in medium 0 µM): 14.6
- drug sensitivity score (BT-474 [4]; 4-OH-tamoxifen in medium 1 µM): 22.8
- drug sensitivity score (BT-474 Tam2 [5]): 22
- drug sensitivity score (ZR-75-1 [6]; 4-OH-tamoxifen in medium 0 µM): 4.41
- drug sensitivity score (ZR-75-1 [6]; 4-OH-tamoxifen in medium 1 µM): 4.44
- drug sensitivity score (MCF-7 Tam1 [7]): 2.87
- drug sensitivity score (ZR-75-1 Tam1 [8]): 5.21
- drug sensitivity score (MCF-7 [9]; 4-OH-tamoxifen in medium 0 µM): 13.9
- drug sensitivity score (MCF-7 [9]; 4-OH-tamoxifen in medium 1 µM): 7.58
- drug sensitivity score (T-47D Tam2 [10]): 8.67
- drug sensitivity score (BT-474 Tam1 [11]): 22
- relative IC50 (T-47D Tam1 [12]): 175 nM
- relative IC50 (ZR-75-1 Tam2 [13]): 499 nM
- relative IC50 (T-47D [14]; 4-OH-tamoxifen in medium 0 µM): 346 nM
- relative IC50 (T-47D [14]; 4-OH-tamoxifen in medium 1 µM): 359 nM
- relative IC50 (BT-474 [15]; 4-OH-tamoxifen in medium 0 µM): 75.3 nM
- relative IC50 (BT-474 [15]; 4-OH-tamoxifen in medium 1 µM): 49 nM
- relative IC50 (BT-474 Tam2 [16]): 56.9 nM
- relative IC50 (ZR-75-1 [17]; 4-OH-tamoxifen in medium 0 µM): 477 nM
- relative IC50 (ZR-75-1 [17]; 4-OH-tamoxifen in medium 1 µM): 698 nM
- relative IC50 (ZR-75-1 Tam1 [18]): 557 nM
- relative IC50 (MCF-7 [19]; 4-OH-tamoxifen in medium 0 µM): 110 nM
- relative IC50 (MCF-7 [19]; 4-OH-tamoxifen in medium 1 µM): 409 nM
- relative IC50 (T-47D Tam2 [20]): 284 nM
- relative IC50 (BT-474 Tam1 [21]): 35.4 nM
